Assay results published in PubChem BioAssay (NCI).
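Step 1: Grow cells in 96-well plates. Step 2: Expose to compound for 48 hours at 5 concentrations. Step 3: Interpolate endpoints linearly; if unreached, use highest concentration. TGI is the concentration that stops growth completely.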

Legend:
Assay in all cases: NCI anticancer screen, dose series, 48 h
[1] = test system: COLO 205 colon
[2] = test system: HCC-2998 colon
[3] = test system: HCT-116 colon
[4] = test system: HOP-62 NSCLC
[5] = test system: K-562 leukemia
[6] = test system: LOX IMVI melanoma
[7] = test system: NCI-H226 lung
[8] = test system: NCI-H460 lung
[9] = test system: NCI/ADR-RES ovarian
[10] = test system: OVCAR-5 ovarian
[11] = test system: SK-MEL-28 melanoma
[12] = test system: SN12C renal
[13] = test system: SNB-19 CNS
[14] = test system: T-47D breast
[15] = test system: CAKI-1 renal
[16] = test system: SK-MEL-5 melanoma
[17] = test system: HL-60(TB) leukemia

SMILES | TGI [1] | TGI [2] | TGI [3] | TGI [4] | TGI [5] | TGI [6] | TGI [7] | TGI [8] | TGI [9] | TGI [10] | TGI [11] | TGI [12] | TGI [13] | TGI [14] | TGI [15] | TGI [16] | TGI [17]
Cc1c2c(n(CCN(C)C)c1C)NN=C(C#N)S2(=O)=O | > 100 µM | > 100 µM | > 100 µM | > 100 µM | > 100 µM | > 100 µM | > 100 µM | > 100 µM | > 100 µM | > 100 µM | > 100 µM | > 100 µM | > 100 µM | > 100 µM |  |  | 
CN1CCC23c4c5ccc(O)c4OC2c2[nH]c4ccccc4c2CC3(O)C1C5 (stereo not drawn) | 33.1 µM | 32 µM | > 100 µM | > 100 µM | 44.4 µM | 54.7 µM |  | > 100 µM | > 100 µM | > 100 µM | 28.4 µM | > 100 µM | > 100 µM | 46.9 µM | > 100 µM | 27.1 µM | 
COc1cccc(C2C3=C(COC3=O)Oc3cc4c(cc32)OCO4)c1 (stereo not drawn) | 0.631 µM | 1.88 µM | > 31.6 µM | > 14 µM | 6.11 µM | > 22.1 µM |  | > 34 µM | > 6.6 µM | > 90 µM | > 100 µM | > 100 µM | > 100 µM |  | > 100 µM | > 43.1 µM | 0.0524 µM
N#CC(Cc1ccccc1Br)N(CCC1=CCCCC1)C(c1ccccc1)c1ccccc1 (stereo not drawn) | > 100 µM | > 100 µM | > 100 µM | > 100 µM | > 100 µM |  |  | > 100 µM | > 100 µM | > 100 µM | > 100 µM |  | > 100 µM | > 100 µM | > 100 µM | > 100 µM | 
COc1cc(/C=C/c2cc(/C=C/c3ccc(O)c(OC)c3)oc(=O)c2)ccc1O | > 73.2 µM |  | > 65.8 µM | 27.2 µM | > 28 µM | 15.7 µM | 61.1 µM | 7.63 µM | 26.1 µM | > 100 µM | > 100 µM | > 71.4 µM | > 100 µM | 4.86 µM | 16.1 µM | > 100 µM | 
COc1cc2c(cc1OC)C(N)CC2=O (stereo not drawn) | > 100 µM | > 100 µM | > 100 µM | > 100 µM | > 100 µM | > 100 µM | > 100 µM |  | > 100 µM | > 100 µM | > 100 µM | > 100 µM | > 100 µM | > 100 µM | > 100 µM | > 100 µM | 
COc1cc(O)c2c(=O)cc(C3(O)C=CC(=O)C=C3)oc2c1 | 0.906 µM | 1.12 µM |  | 0.486 µM | 11.1 µM | 0.464 µM | 1.73 µM | 2.06 µM | 18.9 µM |  | 0.578 µM |  |  |  |  | 0.234 µM | 2.75 µM
O=C=NCCCCCCN1C(=O)N2C(c3ccccc3)N(CCCCCCN=C=O)C(=O)N2C1c1ccccc1 (stereo not drawn) | > 100 µM | > 100 µM | > 100 µM | > 100 µM | > 100 µM | > 100 µM | > 100 µM | > 100 µM | > 100 µM | > 100 µM | > 100 µM | > 100 µM | > 100 µM |  | > 100 µM | > 100 µM | > 100 µM
C=CCNC1=C2C[C@@H](C)C[C@@H](OC)[C@H](OC(=O)CN)[C@H](C)/C=C(\C)[C@@H](OC(N)=O)[C@H](OC)/C=C\C=C(/C)C(=O)NC(=CC1=O)C2=O | 5.23 µM | 1.29 µM | 14.4 µM | 19.9 µM | > 47.4 µM | 6.45 µM |  | 18.3 µM | > 100 µM | 25 µM | 29.7 µM | 17.1 µM | 25.5 µM | > 25.5 µM | 18.1 µM | 17.9 µM | 8.53 µM
Cc1cn(C2CC(N)C(C(=O)O)O2)c(=O)[nH]c1=O (stereo not drawn) | > 100 µM | > 100 µM | > 100 µM | > 100 µM | > 100 µM |  | > 100 µM | > 100 µM | > 100 µM | > 100 µM |  | > 100 µM | > 100 µM |  | > 100 µM | > 100 µM | > 100 µM
CN(C)C(=O)Oc1ccc(-c2cn3cc(NC(=O)c4ccccc4)ccc3n2)cc1 | 32 µM | > 100 µM | > 100 µM | > 100 µM | > 100 µM | > 100 µM | > 100 µM | > 100 µM | > 100 µM | > 100 µM | > 100 µM | > 100 µM | > 100 µM | > 100 µM | > 100 µM | 74.1 µM | 
O=c1[nH]n(Cc2ccccn2)c2ccc([N+](=O)[O-])cc12 | > 100 µM | > 100 µM | > 100 µM | > 100 µM | > 100 µM | > 100 µM | > 100 µM | > 100 µM | > 100 µM | > 100 µM | > 100 µM | > 100 µM | > 100 µM |  | > 100 µM | > 100 µM | > 100 µM
COc1cc2c(cc1OCc1ccccc1)NC(=S)[C@@H]1CCCN1C2=S | > 100 µM | > 100 µM | > 100 µM | 66.2 µM | > 100 µM | > 100 µM | > 100 µM | > 100 µM | > 100 µM | > 100 µM | > 100 µM | > 100 µM | > 100 µM | > 100 µM | > 100 µM | > 100 µM | 
C=CC[C@@H]1C(=O)[C@@]2(O[Si](C(C)C)(C(C)C)C(C)C)CC[C@@H]1C[C@H]2NC(=O)OCC(Cl)(Cl)Cl | > 100 µM | > 100 µM | > 100 µM | > 100 µM | > 100 µM | > 100 µM | > 100 µM | > 100 µM | > 100 µM | > 100 µM | > 100 µM | > 100 µM | > 100 µM | > 100 µM | > 100 µM | > 100 µM | 
Cc1ccc(S(=O)(=O)N2CCCC2C(=O)O[C@H]2CC[C@H]3CC=C[C@H]32)cc1 (stereo partly drawn) |  | > 100 µM | > 31.6 µM | > 100 µM | 78.9 µM | > 100 µM | > 100 µM | 91.4 µM | 77.2 µM | > 100 µM | 96.7 µM | > 100 µM | > 100 µM | > 100 µM | > 100 µM | 43.6 µM | 
